{"source": "patent US20060111286A1", "about": "“Method of modulating endothelial cell activity” (priority 2002, published 2006)", "molecules": {"B1": {"name": "Angiopoietin-1 (protein, UniProt Q15389 16-498, looked up)", "Angiopoietin-1": "HIGCSNQRRSPENSGRRYNRIQHGQCAYTFILPEHDGNCRESTTDQYNTNALQRDAPHVEPDFSSQKLQHLEHVMENYTQWLQKLENYIVENMKSEMAQIQQNAVQNHTATMLEIGTSLLSQTAEQTRKLTDVETQVLNQTSRLEIQLLENSLSTYKLEKQLLQQTNEILKIHEKNSLLEHKILEMEGKHKEELDTLKEEKENLQGLVTRQTYIIQELEKQLNRATTNNSVLQKQQLELMDTVHNLVNLCTKEGVLLKGGKREEEKPFRDCADVYQAGFNKSGIYTIYINNMPEPKKVFCNMDVNGGGWTVIQHREDGSLDFQRGWKEYKMGFGNPSGEYWLGNEFIFAITSQRQYMLRIELMDWEGNRAYSQYDRFHIGNEKQNYRLYLKGHTGTAGKQSSLILHGADFSTKDADNDNCMCKCALMLTGGWWFDACGPSNLNGMFYTAGQNHGKLNGIKWHYFKGPSYSLRSTTMMIRPLDF", "notes": "Angiopoietin-1, obtained from Regeneron Inc"}}, "key": {"[1]": {"system": "human umbilical vein endothelial cells", "assay": "Endothelial permeability assay: passage of FITC-conjugated dextran through thrombin-treated endothelial cell monolayers in transwells", "assay_type": "cell-based", "conditions": "then thrombin 0.2 U/ml", "experimental": "Cells were used at passage 4 or less. For infection with adenoviral constructs, cells were grown to 80% confluence and exposed to 2.5×10^6 plaque forming units/25 cm^2 culture area for 2 hours in M119 medium with 2% FCS and a further 22 hours with 20% FCS.\nEndothelial cells (10^5) were cultured in transwells (3 μ-pore size, Corning Costar Corp, Cambridge, Mass., USA) for 24 hours in complete medium and then in 2% FCS medium for a further 24 hours. Cells were pre-treated with either bisindolylmaleimide I (10 nM or 6 μM), Calphostin C (100 nM), chelerythrine chloride (1 μM), H-89 (50 nM) or angiopoietin-1 (0.1 μg/ml), as required. FITC-conjugated dextran (0.2 μg) was added to the upper chamber of all wells and cells were then treated with thrombin (0.2 U/ml). […] Adenovirus infected ECs were plated on to transwells 24 hours after the above infection procedure and treated in the same manner as uninfected cells."}, "protein kinase Cζ [2]": {"system": "protein kinase Cζ", "assay": "Immunoblotting for phosphorylated Thr410 of over-expressed protein kinase Cζ in endothelial cells", "assay_type": "cell-based, human", "conditions": "for effect on thrombin stimulated protein kinase Cζ phosphorylation (Thr410): then thrombin 0.2 U/ml, FLAG-protein kinase Cζ over-expressing cells", "experimental": "(§1) Human umbilical vein endothelial cells were grown in M119 medium with 20% foetal calf serum (FCS) as described (Litwin, M., Clark, K., Noack, L., Furze, J., Berndt, M., Albelda, S., Vadas, M., Gamble, J. (1997) J Cell Biol. 139:219-28). Cells were used at passage 4 or less. For infection with adenoviral constructs, cells were grown to 80% confluence and exposed to 2.5×10^6 plaque forming units/25 cm^2 culture area for 2 hours in M119 medium with 2% FCS and a further 22 hours with 20% FCS.\nEndothelial cells were plated into fibronectin coated flasks before infection as above. Following infection, cells were serum depleted (0.2% FCS) overnight. Cells were then treated with angiopoietin-1, thrombin and/or bisindolylmaleimide I, as required, lysed in ice-cold lysis buffer (50 mM Tris.HCl, pH 7.4, with 1% NP-40, 150 mM NaCl, 2 mM EGTA, 1 mM NaPO4, 100 mM NaF, 10 mM sodium pyrophosphate and protease inhibitor cocktail). Protein concentrations were assayed using Bradford Reagent (BioRad, Hercules, Calif., USA). Equal amounts of protein were loaded onto 10% acrylamide gels, separated by SDS-PAGE, transferred to PVDF membrane, blocked with 5% skim milk powder and 0.1% Triton-X100 in phosphate buffered saline, and probed with a polyclonal rabbit antibody directed against phosphorylated Thr410 of the activation loop of protein kinase Cζ (Chou, M. M., Hou, W., Johnson, J., Graham, L. K., Lee, M. H., Chen, C. S., Newton, A. C., Schaffhausen, B. S., Toker, A. (1998) Curr Biol. 8:1069-77). This antibody was a generous gift from Dr Alex Toker. After washing, membranes were incubated with anti-rabbit secondary antibody and reactive bands were detected by chemiluminescence (ECL Western Blotting Detection Reagents, Amersham Pharmacia Biotech, Little Chalfont, England, UK). Membranes were stripped using stripping buffer (Re-Blot Plus Western Blot Recycling Kit, Chemicon, Temecula Calif., USA) and re-probed with rabbit anti-protein kinase Cζ immunoaffinity purified IgG (Upstate Biotechnology, Lake Placid N.Y., USA)."}, "[3]": {"system": "protein kinase C isoforms", "conditions": "cited from earlier work"}, "protein kinase Cζ [4]": {"system": "protein kinase Cζ", "assay": "Immunofluorescence staining of protein kinase Cζ localisation in endothelial cell monolayers", "assay_type": "cell-based, human", "conditions": "for effect on thrombin stimulated protein kinase Cζ relocalisation to the membrane: then thrombin 0.2 U/ml", "experimental": "as §1\n(§2) 6×10^4 endothelial cells were cultured in fibronectin coated glass LabTek chamber slides (Nalge Nunc International, Naperville, Ill., USA) and incubated for 3 days prior to staining. Cells were then treated with angiopoietin-1, thrombin and/or bisindolylmaleimnide I, as required. Cells were washed once in PBS, fixed in 4% paraformnaldehyde/PBS for 5 minutes, permeabilized with acetone for 5 min at −20° C. and then washed twice with PBS. The fixed cells were incubated with rabbit anti-protein kinase Cζ immunoaffmity purified IgG or anti-protein kinase Cλ (BD Transduction Laboratories, San Diego, Calif., USA) overnight at 4° C. followed by FITC-conjugated anti-rabbit antibody (Rockland, Gilbertsville Pa., USA). Coverslips were mounted using fluorescent microscopy mounting medium (Dako Corp., Carpinteria, Calif., USA). Cells were imaged by epifluorescent microscopy on an Olympus BX-51 microscope (Olympus, Hamburg, Germany) equipped with excitation filters for fluorescein (494 nm) acquired to a Photometrics Cool Snap FX charge-coupled device camera (Roper Scientific GmbH, Germany). Images were adjusted for brightness and contrast using V^++ software (Digital Optics Ltd., Aucldand, New Zealand)."}, "protein kinase Cλ": {"system": "protein kinase Cλ", "assay": "Immunofluorescence staining of protein kinase Cλ localisation in endothelial cell monolayers", "assay_type": "cell-based, human", "conditions": "thrombin 0.2 U/ml alone, confluent monolayers", "experimental": "as §1\nas §2, with “Cells were imaged by epifluorescent microscopy on an Olympus BX-51 microscope (Olympus, Hamburg, Germany) equipped with excitation filters for fluorescein (494 nm) acquired to a Photometrics Cool Snap FX charge-coupled device camera (Roper Scientific GmbH, Germany). Images were adjusted for brightness and contrast using V^++ software (Digital Optics Ltd., Aucldand, New Zealand).” left out"}}, "note": "Entries after “also recorded” stand apart in the source; their conditions may differ. Where two headings read alike, the source gives them in different places.", "data": [{"molecule": "O=S(=O)(NCCNC/C=C/c1ccc(Br)cc1)c1cccc2cnccc12", "note": "[H-89]", "values": [{"measurement": "effect on thrombin stimulated endothelial cell permeability increase", "setting": "[1]; 50 nM, pre-treated 15 mins", "value": "has no effect on thrombin induced permeability changes; also recorded: has no effect on thrombin-stimulated permeability increases"}]}, {"molecule": "CN(C)CCCn1cc(C2=C(c3c[nH]c4ccccc34)C(=O)NC2=O)c2ccccc21.Cl", "note": "[bisindolylmaleimide I, Bisindolylmaleimide I hydrochloride]", "values": [{"measurement": "effect on thrombin stimulated protein kinase Cζ phosphorylation (Thr410)", "setting": "protein kinase Cζ [2]; 6 μM for 15 minutes", "value": "inhibited thrombin stimulated protein kinase Cζ phosphorylation"}, {"measurement": "protein kinase C isoforms inhibited", "setting": "[3]; 100 nM", "value": "inhibits classical and novel protein kinase C isoforms"}, {"measurement": "protein kinase C isoforms inhibited", "setting": "[3]; 6 μM", "value": "inhibits all protein cinase C isoforms"}, {"measurement": "effect on thrombin stimulated protein kinase Cζ relocalisation to the membrane", "setting": "protein kinase Cζ [4]; 6 μM for 15 minutes", "value": "dramatically decreased"}, {"measurement": "effect on thrombin stimulated endothelial cell permeability increase", "setting": "[1]; 100 nM, pre-treated 15 mins", "value": "had no effect on the thrombin-induced increases of endothelial cell permeability"}, {"measurement": "effect on thrombin stimulated endothelial cell permeability increase", "setting": "[1]; 6 μM, pre-treated 15 mins, hydrochloride", "value": "inhibited thrombin stimulation of endothelial cell permeability"}, {"measurement": "effect on thrombin stimulated endothelial cell permeability increase", "setting": "[1]; 6 μM, pre-treated 15 mins, listed as Bisindolylmaleimide I, hydrochloride", "value": "blocks thrombin-stimulated permeability increases"}]}, {"molecule": "Calphostin C", "values": [{"measurement": "effect on thrombin stimulated endothelial cell permeability increase", "setting": "[1]; 100 nM, pre-treated 15 mins", "value": "had no effect on the thrombin-induced increases of endothelial cell permeability; also recorded: does not block thrombin-stimulated permeability increases"}]}, {"molecule": "Thrombin", "values": [{"measurement": "phosphorylation of over-expressed protein kinase Cζ (Thr410)", "setting": "protein kinase Cζ [2]; thrombin 0.2 U/ml for 15 minutes alone", "value": "increased the phosphorylation of over-expressed protein kinase Cζ"}, {"measurement": "protein kinase Cζ localisation", "setting": "protein kinase Cζ [4]; thrombin 0.2 U/ml alone, confluent monolayers", "value": "localized to the cell membrane"}, {"measurement": "protein kinase Cλ localisation", "setting": "protein kinase Cλ", "value": "remained evenly distributed"}]}, {"molecule": "B1", "values": [{"measurement": "effect on thrombin stimulated protein kinase Cζ phosphorylation (Thr410)", "setting": "protein kinase Cζ [2]; 0.1 μg/ml for 30 minutes", "value": "inhibited thrombin stimulated protein kinase Cζ phosphorylation; also recorded: blocking thrombin stimulated protein kinase Cζ phoshorylation"}, {"measurement": "effect on thrombin stimulated protein kinase Cζ relocalisation to the membrane", "setting": "protein kinase Cζ [4]; 0.1 μg/ml for 30 minutes", "value": "dramatically decreased; also recorded: blocking thrombin stimulated protein kinase Cζ relocalisation"}, {"measurement": "effect on thrombin stimulated endothelial cell permeability increase", "setting": "[1]; 0.1 μg/ml, pre-treated 30 min", "value": "inhibiting thrombin stimulated endothelial cell permeability increases"}, {"measurement": "effect on thrombin stimulated endothelial cell permeability increase", "setting": "[1]; 0.1 μg/ml, pre-treated 30 min, listed as Angiopoietin-1", "value": "can inhibit the thrombin-induced increase of endothelial cell permeability"}]}]}
